Assay results: paper PMC8540442, “KBE009: A Bestatin-Like Inhibitor of the Trypanosoma cruzi Acidic M17 Aminopeptidase with In Vitro Anti-Trypanosomal Activity” (Life, 2021)

Molecular target: T1, TcLAP (T. cruzi acidic M17 leucyl-aminopeptidase; LAPTc) (Trypanosoma cruzi, UniProt Q4DZJ3)
T1 construct: gene Tc00.1047053508799.240; recombinant TcLAP (rTcLAP)
T1 sequence (Q4DZJ3 1-520): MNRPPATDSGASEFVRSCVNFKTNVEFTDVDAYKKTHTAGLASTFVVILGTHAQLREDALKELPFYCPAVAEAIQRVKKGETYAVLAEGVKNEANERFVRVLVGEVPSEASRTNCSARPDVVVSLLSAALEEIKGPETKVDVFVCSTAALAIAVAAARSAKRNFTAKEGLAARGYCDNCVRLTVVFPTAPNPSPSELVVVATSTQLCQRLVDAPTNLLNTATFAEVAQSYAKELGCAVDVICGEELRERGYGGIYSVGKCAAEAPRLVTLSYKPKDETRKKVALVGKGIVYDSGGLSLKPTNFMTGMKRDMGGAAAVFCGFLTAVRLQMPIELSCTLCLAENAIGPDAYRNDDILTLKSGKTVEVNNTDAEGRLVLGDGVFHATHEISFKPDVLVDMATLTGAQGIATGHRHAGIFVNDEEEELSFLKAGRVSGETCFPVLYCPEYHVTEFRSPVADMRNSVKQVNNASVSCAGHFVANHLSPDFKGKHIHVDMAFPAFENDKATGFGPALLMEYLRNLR
Assay: continuous chromogenic assay of purified rTcLAP with Leu-pNA at […] nm, […] min preincubation
Type: biochemical

CC(C)C[C@@H](C(=O)O)N(C(=O)[C@H](N)Cc1ccccc1)C(C(=O)NCc1ccccc1)c1ccco1 (stereo partly shown) [KBE009]
IC50: 66 ± 13.5 µM
